Reference: US7491794B2, “Macrocyclic compounds as inhibitors of viral replication” (Intermune, Inc., priority 2003, dated 2009)
pEC50, pIC50: −log10 of the molar value. Read-outs that look alike come from different tables or passages of the source.

How the values were obtained:
NS3-NS4A protease = biological target: T1, NS3-NS4A protease (Hepatitis C virus genotype 1a, UniProt P27958); experiment: NS3-NS4A protease assay (NS3 inhibition assay, RETS1 substrate), Section B; type: biochemical; conditions: read-out: NS3-NS4A IC50
T1 construct: Recombinant E. coli or Baculovirus full-length NS3 was diluted to 3.33 μM with assay buffer; made in house; host or cells: E. coli or baculovirus (BV) system
T1 sequence (P27958 1027-1657): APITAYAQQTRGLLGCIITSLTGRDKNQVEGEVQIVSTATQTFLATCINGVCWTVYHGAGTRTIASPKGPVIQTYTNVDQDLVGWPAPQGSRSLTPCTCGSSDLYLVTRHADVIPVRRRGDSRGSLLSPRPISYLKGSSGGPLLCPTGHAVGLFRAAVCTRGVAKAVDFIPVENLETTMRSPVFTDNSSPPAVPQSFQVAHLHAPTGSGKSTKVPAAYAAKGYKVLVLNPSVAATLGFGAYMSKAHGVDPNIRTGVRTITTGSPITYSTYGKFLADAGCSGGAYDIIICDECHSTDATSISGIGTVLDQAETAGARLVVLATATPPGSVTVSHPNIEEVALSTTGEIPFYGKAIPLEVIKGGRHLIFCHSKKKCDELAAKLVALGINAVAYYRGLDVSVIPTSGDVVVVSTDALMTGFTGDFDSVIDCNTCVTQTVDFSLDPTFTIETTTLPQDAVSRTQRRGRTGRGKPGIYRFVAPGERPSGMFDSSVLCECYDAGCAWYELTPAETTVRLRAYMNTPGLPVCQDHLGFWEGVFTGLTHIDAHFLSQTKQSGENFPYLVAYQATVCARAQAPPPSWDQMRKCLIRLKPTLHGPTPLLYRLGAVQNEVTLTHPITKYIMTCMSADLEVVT
How it was run: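 Full-length NS3 (E. coli or baculovirus) precomplexed with excess NS4A-2 peptide, run at 2 nM (E. coli) or 3 nM (BV) NS3; compounds pre-incubated 10 min at room temperature before RETS1 substrate. Fluorescence (ex 335/em 495 nm) read kinetically 30 min; IC50 from four-parameter fit, converted to Ki via Ki=IC50/(1+[S]/Km).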

[1] = system: HCV sub-genomic replicon, GS4.3; experiment: Quantitation by ELISA of NPTII in the HCV sub-genomic replicon, GS4.3, Section B; type: cell-based; conditions: Hepatitis C virus, read-out: Replicon EC50
Excerpt: Quantitation by ELISA of the Selectable Marker Protein, Neomycin Phosphotransferase II (NPTII) in the HCV Sub-Genomic Replicon, GS4.3
The HCV sub-genomic replicon (1377/NS3-3′, accession No. AJ242652), stably maintained in HuH-7 hepatoma cells, was created by Lohmann et al. Science 285: 110-113 (1999). The replicon-containing cell culture, designated GS4.3, was obtained from Dr. Christoph Seeger of the Institute for Cancer Research, Fox Chase Cancer Center, Philadelphia, Pa.
GS4.3 cells were maintained at 37° C., 5% CO2, in DMEM (Gibco 11965-092) supplemented with L-glutamine 200 mM (100×) (Gibco25030-081), non-essential amino acids (NEAA)(Biowhittaker 13-114E), heat-inactivated (HI) Fetal Bovine Serum(FBS)(Hyclone SH3007.03) and 750 μg/ml geneticin (G418)(Gibco 10131-035). Cells were sub-divided 1:3 or 4 every 2-3 days.
24 hours prior to the assay, GS4.3 cells were collected, counted, and plated in 96-well plates (Costar 3585) at 7500 cells/well in 100 μl standard maintenance medium (above) and incubated in the conditions above. To initiate the assay, culture medium was removed, cells were washed once with PBS (Gibco 10010-023) and 90 μl Assay Medium (DMEM, L-glutamine, NEAA, 10% HI FBS, no G418) was added. Inhibitors were made as a 10× stock in Assay Medium, (3-fold dilutions from 10 μM to […] final concentration, final DMSO concentration 1%), 10 μl were added to duplicate wells, plates were rocked to mix, and incubated as above for 72 h.
An NPTII ELISA kit was obtained from AGDIA, Inc. (Compound direct ELISA test system for Neomycin Phosphotransferase II, PSP 73000/4800). Manufacturer's instructions were followed, with some modifications. 10×PEB-1 lysis buffer was made up to include 500 μM PMSF (Sigma P7626, 50 mM stock in isopropanol). After 72 h incubation, cells were washed once with PBS and 150 μl PEB-1 with PMSF was added per well. Plates were agitated vigorously for 15 minutes, room temperature, then frozen at −70° C. Plates were thawed, lysates were mixed thoroughly, and 100 μl were applied to an NPTII Elisa plate. A standard curve was made. Lysate from DMSO-treated control cells was pooled, serially diluted with PEB-1 with PMSF, and applied to duplicate wells of the ELISA plate, in a range of initial lysate amount of 150u1-2.5 ul. In addition, 100 μl buffer alone was applied in duplicate as a blank. Plates were sealed and gently agitated at room temperature for 2 h. Following capture incubation, the plates were washed 5×300 μl with PBS-T (0.5% Tween-20, PBS-T was supplied in the ELISA kit). For detection, a 1× dilution of enzyme conjugate diluent MRS-2 (5×) was made in PBS-T, into which 1:100 dilutions of enzyme conjugates A and B were added, as per instructions. Plates were resealed, and incubated with agitation, covered, room temperature, for 2 h. The washing was then repeated and 100 μl of room temperature TMB substrate was added. After approximately 30 minutes incubation (room temperature, agitation, covered), the reaction was stopped with 50 μl 3M sulfuric acid. Plates were read at 450 nm on a Molecular Devices Versamax plate reader.
Inhibitor effect was expressed as a percentage of DMSO-treated control signal, and inhibition curves were calculated using a 4-parameter equation: y=A+((B−A)/(1+((C/x)^D))), where C is half-maximal activity or EC50.

Row | SMILES | pIC50 (NS3-NS4A protease) | pEC50 ([1]; GS4.3 cells, 72 h incubation) | pEC50 ([1]; 72 h)
1 | CC(C)(C)OC(=O)N[C@H]1CCCCC/C=C\[C@@H]2C[C@@]2(C(=O)NS(C)(=O)=O)NC(=O)[C@@H]2C[C@@H](OC(=O)N3CCc4ccccc4C3)CN2C1=O [AR00254906, (1S,4R,6S,14S,18R)-3,4-Dihydro-1H-isoquinoline-2-carboxylic acid 14-tert-butoxycarbonylamino-4-methanesulfonylaminocarbonyl-2,15-dioxo-3,16-diaza-tricyclo[14.3.0.0^4,6]nonadec-7-en-18-yl ester] | > 7.00 | > 6.00 | 
2 | CC(C)S(=O)(=O)NC(=O)[C@@]12C[C@H]1/C=C\CCCCC[C@H](NC(=O)OC(C)(C)C)C(=O)N1C[C@H](OC(=O)N3CCc4ccccc4C3)C[C@H]1C(=O)N2 [AR00261407, (1S,4R,6S,14S,18R)-3,4-Dihydro-1H-isoquinoline-2-carboxylic acid 14-tert-butoxycarbonylamino-2,15-dioxo-4-(propane-2-sulfonylaminocarbonyl)-3,16-diaza-tricyclo[14.3.0.0^4,6]nonadec-7-en-18-yl ester] | > 7.00 |  | > 6.00
3 | CC(C)(C)OC(=O)N[C@H]1CCCCC/C=C\[C@@H]2C[C@@]2(C(=O)NS(=O)(=O)C2CC2)NC(=O)[C@@H]2C[C@@H](OC(=O)N3CCc4ccccc4C3)CN2C1=O [AR00261408, (1S,4R,6S,14S,18R)-3,4-Dihydro-1H-isoquinoline-2-carboxylic acid 14-tert-butoxycarbonylamino-4-cyclopropanesulfonylaminocarbonyl-2,15-dioxo-3,16-diaza-tricyclo[14.3.0.0^4,6]nonadec-7-en-18-yl ester] | > 7.00 | > 7.00 | 
4 | CCCCS(=O)(=O)NC(=O)[C@@]12C[C@H]1/C=C\CCCCC[C@H](NC(=O)OC(C)(C)C)C(=O)N1C[C@H](OC(=O)N3CCc4ccccc4C3)C[C@H]1C(=O)N2 [AR00261409, (1S,4R,6S,14S,18R)-3,4-Dihydro-1H-isoquinoline-2-carboxylic acid 4-(butane-1-sulfonylaminocarbonyl)-14-tert-butoxycarbonylamino-2,15-dioxo-3,16-diaza-tricyclo[14.3.0.0^4,6]nonadec-7-en-18-yl ester] | > 7.00 |  | > 5.00
5 | O=C(N[C@H]1CCCCC/C=C\[C@@H]2C[C@@]2(C(=O)NS(=O)(=O)C2CC2)NC(=O)[C@@H]2C[C@@H](OC(=O)N3CCc4ccccc4C3)CN2C1=O)OC1CCCC1 [AR00282131, (1S,4R,6S,14S,18R)-3,4-Dihydro-1H-isoquinoline-2-carboxylic acid 14-cyclopentyloxycarbonylamino-4-cyclopropanesulfonylaminocarbonyl-2,15-dioxo-3,16-diaza-tricyclo[14.3.0.0^4,6]nonadec-7-en-18-yl ester] | > 7.00 | > 7.00 | 
6 | CC(C)(C)OC(=O)N[C@H]1CCCCC/C=C\[C@@H]2C[C@@]2(C(=O)NS(=O)(=O)C2CC2)NC(=O)[C@@H]2C[C@@H](NC(=O)N3CCc4ccccc4C3)CN2C1=O [AR00287266, (is, 4R, 6S, 14S, 18R)-{4-Cyclopropanesulfonylaminocarbonyl-18-[(3,4-dihydro-1H-isoquinoline-2-carbonyl)-amino]-2,15-dioxo-3,16-diaza-tricyclo[14.3.0.0^4,6]nonadec-7-en-14-yl}-carbamic acid tert-butyl ester] | > 7.00 | > 6.00 | 
7 | CC(C)(C)OC(=O)N[C@H]1CCCCC/C=C\[C@@H]2C[C@@]2(C(=O)O)NC(=O)[C@@H]2C[C@@H](OC(=O)N3Cc4ccccc4C3)CN2C1=O [AR00291871, (1S,4R,6S,14S,18R)-14-tert-Butoxycarbonylamino-18-(1,3-dihydro-isoindole-2-carbonyloxy)-2,15-dioxo-3,16-diaza-tricyclo[14.3.0.0^4,6]nonadec-7-ene-4-carboxylic acid] | > 7.00 | > 6.00 | 
